Data as given in ChEMBL document CHEMBL1201862, “PubChem BioAssay data set” (2004).
Calls of active or inactive are those of the source.

Tests used:
[1] = target: 26S proteasome non-ATPase regulatory subunit 14 (Homo sapiens, UniProt O00487); assay: inhibition of proteasome subunit RPN11 – biochemical, fluorescence polarization, uHTS hits, confirmation (AID 602368); type: functional
Prothrombin = Prothrombin (Bos taurus, UniProt P00735); assay: thrombin protease inhibitors – biochemical, fluorescence polarization, uHTS hits, dose response (AID 602369); type: functional
Large T antigen = Large T antigen (Simian virus 40, UniProt P03070); type: functional, Betapolyomavirus macacae;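 also: Confirmatory-stage PubChem screen for compounds that inhibit SV40 T antigen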
Large T antigen, sequence (P03070 whole entry): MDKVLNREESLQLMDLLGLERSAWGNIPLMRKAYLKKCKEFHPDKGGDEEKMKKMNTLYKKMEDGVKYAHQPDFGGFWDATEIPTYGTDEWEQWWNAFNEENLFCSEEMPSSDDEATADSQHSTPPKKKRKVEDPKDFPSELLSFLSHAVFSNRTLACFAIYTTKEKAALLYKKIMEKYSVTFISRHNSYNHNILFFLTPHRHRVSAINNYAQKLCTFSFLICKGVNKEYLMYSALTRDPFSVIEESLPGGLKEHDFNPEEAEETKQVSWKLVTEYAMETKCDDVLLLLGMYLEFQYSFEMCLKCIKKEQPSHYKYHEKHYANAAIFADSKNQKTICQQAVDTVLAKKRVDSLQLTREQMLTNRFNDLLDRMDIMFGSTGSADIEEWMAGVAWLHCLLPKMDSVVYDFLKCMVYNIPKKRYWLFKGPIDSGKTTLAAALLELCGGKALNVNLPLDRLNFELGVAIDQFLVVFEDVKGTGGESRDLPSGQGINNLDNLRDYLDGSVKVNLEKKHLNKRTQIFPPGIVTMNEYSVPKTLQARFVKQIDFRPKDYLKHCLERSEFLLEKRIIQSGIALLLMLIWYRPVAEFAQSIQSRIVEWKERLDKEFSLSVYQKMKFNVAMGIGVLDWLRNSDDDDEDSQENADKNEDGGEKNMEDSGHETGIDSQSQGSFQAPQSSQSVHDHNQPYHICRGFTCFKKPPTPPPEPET

[2] = target: 72 kDa type IV collagenase (Homo sapiens, UniProt P08253); assay: Dose Response validation of uHTS RPN11 inhibitor hits using a MMP-2 Fluorescence assay.; type: functional
72 kDa type IV collagenase, sequence (P08253 whole entry): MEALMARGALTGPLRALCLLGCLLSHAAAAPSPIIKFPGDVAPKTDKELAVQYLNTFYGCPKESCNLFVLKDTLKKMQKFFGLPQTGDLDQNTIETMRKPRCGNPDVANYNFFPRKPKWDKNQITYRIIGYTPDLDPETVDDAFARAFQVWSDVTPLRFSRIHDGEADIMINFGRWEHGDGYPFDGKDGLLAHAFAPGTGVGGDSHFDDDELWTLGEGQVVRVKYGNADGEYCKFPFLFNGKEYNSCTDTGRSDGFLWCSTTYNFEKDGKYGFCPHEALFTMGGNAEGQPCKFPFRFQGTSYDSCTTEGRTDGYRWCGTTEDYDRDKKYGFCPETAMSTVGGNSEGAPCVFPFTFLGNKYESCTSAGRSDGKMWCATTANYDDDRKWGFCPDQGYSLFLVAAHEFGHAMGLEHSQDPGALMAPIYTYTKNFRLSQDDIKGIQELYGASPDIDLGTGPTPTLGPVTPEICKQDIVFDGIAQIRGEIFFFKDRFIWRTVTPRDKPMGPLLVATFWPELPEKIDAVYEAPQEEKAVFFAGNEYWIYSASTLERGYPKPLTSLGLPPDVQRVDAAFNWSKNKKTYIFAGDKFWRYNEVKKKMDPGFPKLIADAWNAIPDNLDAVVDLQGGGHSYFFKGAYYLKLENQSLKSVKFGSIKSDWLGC

[3] = NIH-3T3 fibroblast cytotoxicity, dose response, cytotoxicity control, cell-based, fluorescence, Alamar Blue, secondary assay (AID 2327); type: functional;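 also: NIH-3T3 mouse fibroblasts cultured with fluconazole at 8 µg/mL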
[4] = fluconazole-exposed Candida albicans growth modulators – fluorescence, retest, confirmation (AID 2467); type: functional, cell-based
[5] = target: ATP-dependent molecular chaperone HSP82 (Candida albicans (strain WO-1) (Yeast), UniProt C4YTQ8); assay: steroid-induced GRE reporter decrease in yeast – S. cerevisiae, luminescence, Hsp90 inhibitor project, dose response (AID 2400); type: functional, cell-based;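 also: beta-galactosidase luminescence from glucocorticoid response element reporter as proxy for Hsp90 function; inhibitor potency where signal loss means Hsp90 inhibition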
ATP-dependent molecular chaperone HSP82, sequence (C4YTQ8 whole entry): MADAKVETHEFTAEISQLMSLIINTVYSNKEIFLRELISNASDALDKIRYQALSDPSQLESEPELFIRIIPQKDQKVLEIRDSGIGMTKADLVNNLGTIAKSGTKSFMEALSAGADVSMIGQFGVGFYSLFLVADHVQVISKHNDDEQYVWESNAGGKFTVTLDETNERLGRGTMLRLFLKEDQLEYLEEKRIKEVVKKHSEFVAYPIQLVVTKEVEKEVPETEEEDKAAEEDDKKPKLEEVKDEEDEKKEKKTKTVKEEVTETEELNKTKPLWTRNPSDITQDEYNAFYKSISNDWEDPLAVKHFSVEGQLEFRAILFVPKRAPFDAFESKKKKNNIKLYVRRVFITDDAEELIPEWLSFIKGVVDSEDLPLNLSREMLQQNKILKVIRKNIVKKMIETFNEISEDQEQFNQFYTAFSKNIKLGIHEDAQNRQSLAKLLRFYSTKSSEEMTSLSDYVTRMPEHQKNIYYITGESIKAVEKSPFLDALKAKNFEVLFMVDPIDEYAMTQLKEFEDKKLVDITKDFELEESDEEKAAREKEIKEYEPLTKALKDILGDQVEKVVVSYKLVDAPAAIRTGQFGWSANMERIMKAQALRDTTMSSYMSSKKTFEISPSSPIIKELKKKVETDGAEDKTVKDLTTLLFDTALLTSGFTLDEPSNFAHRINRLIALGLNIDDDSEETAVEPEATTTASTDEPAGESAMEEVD

[6] = target: T1, Serine/threonine-protein phosphatase (Candida dubliniensis (strain CD36 / CBS 7987 / NCPF 3949 / NRRLY-17841) (Yeast), UniProt B9W6M3); assay: blockers of CaCl2-induced CDRE-lacZ signaling – S. cerevisiae, luminescence, secondary, dose response (AID 2388); type: functional, cell-based;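 also: yeast reporter cells carrying a calcineurin-responsive lacZ construct stimulated with calcium chloride; luminescent beta-galactosidase reporter signal in whole cells rather than isolated phosphatase activity; potency for inhibition where a drop in reporter signal means calcineurin blockade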
T1 sequence (B9W6M3 whole entry): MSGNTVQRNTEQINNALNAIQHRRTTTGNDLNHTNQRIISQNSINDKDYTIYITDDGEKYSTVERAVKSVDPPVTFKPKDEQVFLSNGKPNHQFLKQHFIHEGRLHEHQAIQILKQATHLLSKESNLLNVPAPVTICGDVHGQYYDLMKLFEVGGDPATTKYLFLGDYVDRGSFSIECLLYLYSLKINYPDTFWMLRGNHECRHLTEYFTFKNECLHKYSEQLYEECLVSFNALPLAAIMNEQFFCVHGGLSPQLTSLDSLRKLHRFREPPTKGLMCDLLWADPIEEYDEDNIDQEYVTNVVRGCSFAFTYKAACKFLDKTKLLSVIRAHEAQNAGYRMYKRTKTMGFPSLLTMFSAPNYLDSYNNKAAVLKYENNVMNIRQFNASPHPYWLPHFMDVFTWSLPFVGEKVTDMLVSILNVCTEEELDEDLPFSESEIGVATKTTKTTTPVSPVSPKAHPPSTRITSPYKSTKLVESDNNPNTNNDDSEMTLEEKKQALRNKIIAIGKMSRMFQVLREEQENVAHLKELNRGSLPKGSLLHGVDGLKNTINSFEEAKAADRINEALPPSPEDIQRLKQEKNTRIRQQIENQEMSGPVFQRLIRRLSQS

[7] = tested on: Streptococcus sp. 'group A'; assay: Streptococcus pyogenes SK(-)GAS viability under kanamycin – luminescence, BacTiterGlo, confirmation, counter-screen for streptokinase expression inhibitor project, dose response (AID 1900); type: functional, organism-based
Streptokinase A = target: T2, Streptokinase A (Streptococcus pyogenes serotype M1, UniProt P10520); assay: viability-normalized secreted streptokinase activity reduction – plasminogen activation absorbance, OD405, dose response (AID 1914); type: functional, Streptococcus pyogenes M1 GAS;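 also: secreted streptokinase activity via plasminogen activation per viability signal from cell pellet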
T2 sequence (P10520 whole entry): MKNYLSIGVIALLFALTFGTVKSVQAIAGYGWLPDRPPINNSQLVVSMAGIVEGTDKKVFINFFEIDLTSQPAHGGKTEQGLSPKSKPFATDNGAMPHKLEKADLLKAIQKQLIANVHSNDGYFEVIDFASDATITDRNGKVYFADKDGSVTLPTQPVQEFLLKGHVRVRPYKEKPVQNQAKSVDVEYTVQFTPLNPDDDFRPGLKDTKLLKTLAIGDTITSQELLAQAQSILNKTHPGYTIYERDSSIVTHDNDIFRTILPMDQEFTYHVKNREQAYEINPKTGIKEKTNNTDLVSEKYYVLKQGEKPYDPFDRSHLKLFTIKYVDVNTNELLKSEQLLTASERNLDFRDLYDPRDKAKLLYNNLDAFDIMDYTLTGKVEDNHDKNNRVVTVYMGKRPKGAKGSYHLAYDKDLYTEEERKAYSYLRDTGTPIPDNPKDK

[8] = viability loss in HeLa cells – cytotoxicity control for MgcRacGAP inhibitor project, dose response (AID 624300); type: functional
Streptococcus = assay: GAS UMAA2166 growth inhibition – luminescence, BacTiterGlo, counter-screen for streptokinase expression inhibitor project, dose response (AID 1915); type: functional, organism-based;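 also: potency for reduction of bacterial viability or growth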
H9c2 = assay: cells; type: functional, cell-based; settings: Rattus norvegicus, H9c2, Myocardium;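 also: confirmatory concentration-response retest of ultra-high-throughput screening hits for modulation of myocardial damage; cell death induced by hydrogen peroxide oxidative stress; compound pretreatment for 60 min then peroxide exposure for 2 h; potency is for protecting the cells against peroxide damage rather than for killing them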
[9] = target: T3, Rac GTPase-activating protein 1 (Homo sapiens, UniProt Q9H0H5); assay: blockers of MgcRacGAP-driven Rac1 GTP hydrolysis – biochemical, ADP Hunter fluorescence, primary and confirmatory, confirmation (AID 624330); type: functional
T3 sequence (Q9H0H5 whole entry): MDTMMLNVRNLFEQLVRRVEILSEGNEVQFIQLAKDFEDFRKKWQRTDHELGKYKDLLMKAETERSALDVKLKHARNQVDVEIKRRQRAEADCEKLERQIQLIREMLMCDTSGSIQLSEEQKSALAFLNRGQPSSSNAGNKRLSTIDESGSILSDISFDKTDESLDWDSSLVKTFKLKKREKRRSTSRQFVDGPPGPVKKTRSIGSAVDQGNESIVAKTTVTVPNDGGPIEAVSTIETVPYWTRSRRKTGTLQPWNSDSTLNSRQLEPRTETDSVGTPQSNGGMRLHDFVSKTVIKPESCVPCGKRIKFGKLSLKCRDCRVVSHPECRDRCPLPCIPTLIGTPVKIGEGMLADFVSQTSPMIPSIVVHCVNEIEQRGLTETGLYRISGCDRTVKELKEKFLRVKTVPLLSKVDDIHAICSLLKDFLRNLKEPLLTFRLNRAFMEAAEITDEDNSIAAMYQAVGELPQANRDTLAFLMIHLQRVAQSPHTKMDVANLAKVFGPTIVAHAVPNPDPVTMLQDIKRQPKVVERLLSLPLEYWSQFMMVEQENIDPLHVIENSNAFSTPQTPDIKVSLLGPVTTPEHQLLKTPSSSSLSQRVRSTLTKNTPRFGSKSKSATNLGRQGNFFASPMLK

cells = type: functional, cell-based; settings: HEK-CNG
Galanin receptor type 3 = target: T4, Galanin receptor type 3 (Homo sapiens, UniProt O60755); assay: Fluorescence-based cell-based primary high throughput dose response assay to identify antagonists of the Galanin Receptor 3 (GalR3).; type: functional
T4 sequence (O60755 whole entry): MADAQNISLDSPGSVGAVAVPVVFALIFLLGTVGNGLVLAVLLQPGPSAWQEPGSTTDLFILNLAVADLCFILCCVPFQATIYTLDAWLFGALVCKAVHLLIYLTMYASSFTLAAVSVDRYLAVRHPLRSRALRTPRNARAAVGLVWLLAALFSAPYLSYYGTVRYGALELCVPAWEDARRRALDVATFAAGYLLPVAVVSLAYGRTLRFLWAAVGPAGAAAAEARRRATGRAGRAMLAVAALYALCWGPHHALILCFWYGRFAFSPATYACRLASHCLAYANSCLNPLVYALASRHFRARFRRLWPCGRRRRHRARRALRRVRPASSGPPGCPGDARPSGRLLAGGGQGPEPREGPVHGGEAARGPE

[10] = target: T5, DNA repair protein RAD52 homolog (Homo sapiens, UniProt P43351); type: functional, biochemical
T5 sequence (P43351 whole entry): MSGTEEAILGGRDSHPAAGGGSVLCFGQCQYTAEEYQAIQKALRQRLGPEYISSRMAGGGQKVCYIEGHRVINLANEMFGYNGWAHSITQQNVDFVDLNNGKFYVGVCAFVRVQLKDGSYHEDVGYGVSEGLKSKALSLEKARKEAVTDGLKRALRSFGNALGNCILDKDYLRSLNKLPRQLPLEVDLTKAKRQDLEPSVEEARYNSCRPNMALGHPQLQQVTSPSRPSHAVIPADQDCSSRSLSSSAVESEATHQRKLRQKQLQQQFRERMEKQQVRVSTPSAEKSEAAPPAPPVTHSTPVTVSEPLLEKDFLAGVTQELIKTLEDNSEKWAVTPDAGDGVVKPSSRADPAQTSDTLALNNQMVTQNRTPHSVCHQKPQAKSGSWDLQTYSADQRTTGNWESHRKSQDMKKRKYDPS

26S proteasome non-ATPase regulatory subunit 14, sequence (O00487 whole entry): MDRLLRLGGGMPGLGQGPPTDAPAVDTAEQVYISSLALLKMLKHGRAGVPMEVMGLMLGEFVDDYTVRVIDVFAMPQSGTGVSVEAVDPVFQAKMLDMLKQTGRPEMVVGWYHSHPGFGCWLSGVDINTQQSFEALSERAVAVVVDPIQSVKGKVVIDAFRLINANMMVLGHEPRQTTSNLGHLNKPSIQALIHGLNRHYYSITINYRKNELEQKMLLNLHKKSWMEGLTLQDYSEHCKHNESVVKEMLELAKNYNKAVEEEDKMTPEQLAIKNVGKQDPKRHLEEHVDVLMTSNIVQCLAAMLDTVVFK

O=C1NC(=O)N(c2ccc(Cl)cc2)C(=O)/C1=C\c1ccc(Sc2nc3ccccc3[nH]2)o1
IC50 [1]: 42.2 µM (active) | IC50 (Prothrombin): 44.9 µM (active) | IC50 (Large T antigen): 18.8 µM (active) | IC50 [2]: > 100 µM (inactive)

CCOC(=O)c1c(N=C(S)NCC2CCCO2)sc(C)c1C (stereo unspecified)
EC50 [3]: > 150 µM (inactive) | EC50 [4]: 635 nM (active) | EC50 [5]: 16.9 µM (active) | EC50 [6]: > 180 µM (inactive)

COc1ccc(-n2c(/C=C/c3ccc(O)c(OC)c3)nc3ccccc3c2=O)cc1
EC50 [7]: 22 µM (active) | EC50 (Streptokinase A): > 150 µM (not active) | CC50 [8]: 71 µM (active) | EC50 (Streptococcus): 26.5 µM (active) | IC50 (H9c2): > 79 µM (inactive) | IC50 [9]: 52.4 µM (active)

O=C(Nc1nc(-c2ccc(Cl)cc2Cl)cs1)c1ccc(OCC2CCCO2)cc1 (stereo unspecified)
EC50 (cells): > 29.9 µM (inactive) | IC50 (Galanin receptor type 3): 1.07 µM (active)

CN1C=CC(=CC=C2C=CC(=O)C=C2)C=C1
IC50 [1]: 31.2 µM (active) | IC50 (Prothrombin): 62.7 µM (active) | IC50 [9]: 18.4 µM (active) | IC50 [2]: > 100 µM (inactive)

c1cc(OCCCN2CCCCC2)ccc1CN1CCCCC1 [JNJ-5207852]
AC50 [10]: 10.3 µM (active)
